From patent US20100190755A1, “TETRACYCLINE COMPOUNDS FOR THE TREATMENT OF RHEUMATOID ARTHRITIS AND RELATED METHODS OF TREATMENT” (priority 2008, published 2010)
In brackets after ≈: the same amount, converted by molar mass.

Tests used:
E. coli 25922 = experiment: Antibacterial activity MIC, Gram- (Table 9); format: cell-based; conditions: Escherichia coli, CAMHB, 35° C., approximately 18 hr
Procedure: (§1) 2 mg of each compound is dissolved in 100 μl of DMSO. The solution is then added to cation-adjusted Mueller Hinton broth (CAMHB), which results in a final compound concentration of 200 μg per ml. The tetracycline compound solutions are diluted to 50 μL volumes, with a test compound concentration of 0.098 μg/ml. Optical density (OD) determinations are made from fresh log-phase broth cultures of the test strains. Dilutions are made to achieve a final cell density of 1×10^6 CFU/ml. At OD=1, cell densities for different genera should be approximately:
(§2) 50 μl of the cell suspensions are added to each well of microtiter plates. The final cell density should be approximately 5×10^5 CFU/ml. These plates are incubated at 35° C. in an ambient air incubator for approximately 18 hr. The plates are read with a microplate reader and are visually inspected when necessary. The MIC is defined as the lowest concentration of the tetracycline compound that inhibits growth.

S. aureus RN450 = experiment: Antibacterial activity MIC, Gram+ (Table 9); format: cell-based; conditions: Staphylococcus aureus, CAMHB, 35° C., approximately 18 hr
Procedure: as §1, §2

[1] = system: collagen-induced arthritis (CIA) in male DBA/1 mice; experiment: CIA model, Example 3 (cumulative scores vs untreated controls); format: in vivo; conditions: Mus musculus
Procedure: The CIA model data were acquired according to the following protocol: • 1. Male DBA/1 mice were anaesthetized by i.p. injection of ketamine/xylazine (1.25 mg/ml:0.25 mg/ml, 100 μl/mouse). • 2. Anaesthetized mice were immunized intradermally at the base of the tail with 0.1 or 0.2 ml of an emulsion composed of 100 or 200 μg bovine type II collagen in Complete Freund's Adjuvant (50 μl/spot x 2 or 4 spots). • 3. At day 21 after the immunization, mice received an intradermal boost of 100 μl of an emulsion composed of 100 μg bovine type II collagen in Incomplete Freund's Adjuvant (50 μl/spot x 2 spots) • 4. After onset of disease symptoms (usually 3-4 days after boost), tetracycline derivatives were administered daily into mice via intraperitoneal or oral routes for 8 to 15 days. Methotrexate (12 mg/kg/day) or dexmethasone (4 mg/kg/day) was used as a control for inflammation suppression. • 5. The disease severity was scored daily for 8-15 days after the appearance of the symptoms. Disease severity was graded as following: • a. Visual clinical score for the presence of inflammation in the fingers/toes of the forepaws and hindpaws: • 1. Erythema and mild swelling confined to the mid-foot (tarsals) or ankle joint • 2. Erythema and mild swelling extending from the ankle to the mid-foot • 3. Erythema and moderate swelling extending from the ankle to the metatarsal joints • 4. Erythema and severe swelling encompassing the ankle, foot, and digits. • b. Clinical swelling score for the presence of paw edema in the forepaws and hindpaws: • Paw thickness was measured daily by an engineering micrometer after isofluorane inhalation or ketamine/xylazine (1.25 mg/ml:0.25 mg/ml, 100 μl/mouse) i.p. injection.
Daily scores and paw swelling measurements for each treatment group of mice were added over the total observation period to obtain a cumulative score. Cumulative scores were compared between untreated controls and treated groups to determine tetracycline-induced inhibition.

IL-6 = experiment: Paw extract biomarker ELISA, CIA mice: IL-6; format: in vivo, mouse; conditions: paw extracts from CIA mice
Procedure: (§3) • 1. Male DBA/1 mice were immunized i.d. with an emulsion of 200 μg bovine type II collagen in Complete Freund's Adjuvant. • 2. On day 21, mice received i.d. boost of 100 μg collagen in Incomplete Freund's Adjuvant • 3. Compounds were administered i.p. daily for 7 days starting from disease onset (day 3-4 after boost). • 4. Foot swelling was measured by an engineering micrometer and disease severity was scored accordingly (1, erythema and mild swelling confined to the tarsal or ankle joint; 2, erythema and mild swelling extending from the ankle to the mid-foot; 3, erythema and moderate swelling extending from the ankle to the metatarsal joints; 4, erythema and severe swelling encompassing the ankle, foot, and digits). • 5. Change (Δ) of paw thickness=sum of paw thickness from 4 paws of a mouse (experimental)−sum of baseline paw thickness from 4 paws of the same mouse. • 6. % inhibition=cumulative A paw thickness (disease group−compound-treated group)/cumulative A paw thickness (disease group)
(§4) • 1. Paws were collected from mice after 5-7 days of dosing and dissected free of skin. • 2. The paws were then homogenized in ice-cold PBS (2 ml/4 paws/mouse) containing 1× protease inhibitor using a Polytron homogenizer. • 3. Debris and particles were removed from the homogenized samples by centrifugation. • 4. Liquid layers were collected for MMP-9, IL-1, IL-6, RANKL, MCP-1, and TNFα analysis using ELISA kits from R & D System.

[2] = system: collagen-induced arthritis (CIA) in male DBA/1 mice; experiment: Murine collagen-induced arthritis (CIA) model, Example 2; format: in vivo, mouse; conditions: for Change in Paw Thickness (mm) Mean: 12 mg/kg/day i.p.
Procedure: Four non-antibacterial analogues of minocycline (J, W, AF and AT) were synthesized and tested in the murine model of the disease, collagen-induced arthritis (CIA) (See supra). Male DBA/1 mice were immunized intradermally with 200 μg of bovine type II collagen and boosted with collagen three weeks later. Minocycline and four non-antibacterial minocycline derivatives were administered i.p. beginning after disease onset. Paw thickness was measured and animals were scored daily.
as §3

MMP-9 = experiment: Paw extract biomarker ELISA, CIA mice: MMP-9; format: in vivo, mouse; conditions: paw extracts from CIA mice
Procedure: as §3, §4

MCP-1 = experiment: Paw extract biomarker ELISA, CIA mice: MCP-1; format: in vivo, mouse; conditions: paw extracts from CIA mice
Procedure: as §3, §4

[3] = system: cytokines (IL-1, IL-6, RANKL and MCP-1) and a matrix metalloproteinase (MMP-9); experiment: Paw extract biomarker ELISA, CIA mice: whole panel (statements in words); format: in vivo, mouse
Procedure: as §3, §4

IL-1 = experiment: Paw extract biomarker ELISA, CIA mice: IL-1; format: in vivo, mouse; conditions: paw extracts from CIA mice
Procedure: as §3, §4

Compound	MIC (E. coli 25922)	MIC (S. aureus RN450)	inhibition in vivo at 25 mg/kg [1]	also measured
CC(=O)c1cc(N(C)C)c2c(c1O)C(=O)C1=C(O)[C@]3(O)C(=O)C(C(N)=O)=C(O)C[C@@H]3C[C@@H]1C2 [Compound T]	> 64 µg/mL	4 µg/mL (≈ 8.76 µM)	44%	inhibition in vivo at 12 mg/kg ([1]; Dose 12 mg/kg): 10%
CCCc1cc(N(C)C)c2c(c1O)C(=O)C1=C(O)[C@]3(O)C(=O)C(C(N)=O)=C(O)[C@@H](N(C)C)[C@@H]3C[C@@H]1C2 [E]	> 64 µg/mL	2 µg/mL (≈ 4 µM)	44%	–
CCc1ccc2c(c1O)C(=O)C1=C(O)[C@]3(O)C(=O)C(C(N)=O)=C(O)[C@@H](N(C)C)[C@@H]3[C@@H](O)[C@@H]1[C@H]2C [G]	16 µg/mL (≈ 33.9 µM)	0.5 µg/mL (≈ 1.06 µM)	55%	–
CCc1cc(N(C)C)c2c(c1O)C(=O)C1=C(O)[C@]3(O)C(=O)C(C(N)=O)=C(O)[C@@H](N(C)C)[C@@H]3C[C@@H]1C2 [H]	> 64 µg/mL	0.5 µg/mL (≈ 1.03 µM)	41%	–
CO/N=C(\C)c1cc(N(C)C)c2c(c1O)C(=O)C1=C(O)[C@]3(O)C(=O)C(C(N)=O)=C(O)[C@@H](N(C)C)[C@@H]3C[C@@H]1C2 [K]	> 64 µg/mL	4 µg/mL (≈ 7.57 µM)	30%	–
CN(C)[C@@H]1C(O)=C(C(N)=O)C(=O)[C@@]2(O)C(O)=C3C(=O)c4c(O)ccc(C5=CCNCC5)c4C[C@H]3C[C@@H]12 [L]	64 µg/mL (≈ 129 µM)	2 µg/mL (≈ 4.04 µM)	48%	–
CN(Cc1cnc2nc(N)nc(N)c2n1)c1ccc(C(=O)N[C@@H](CCC(=O)O)C(=O)O)cc1 [Methotrexate, methotrexate, reference compound]	–	–	–	Percent level of Biomarker Tissue [c] Compared to Untreated Control, IL-6 AVG (IL-6): 20%; % Inhibition (Change in Paw Thickness) AVG ([2]; 12 mg/kg): 45%; % Inhibition (Clinical Score) AVG ([2]; 12 mg/kg): 25%; Change in Paw Thickness (mm) Mean ([2]; day 1 of dosing): 0.77 mm; Change in Paw Thickness (mm) Mean ([2]; day 2 of dosing): 0.68 mm; Change in Paw Thickness (mm) Mean ([2]; day 3 of dosing): 0.71 mm; Change in Paw Thickness (mm) Mean ([2]; day 4 of dosing): 0.68 mm; Change in Paw Thickness (mm) Mean ([2]; day 5 of dosing): 0.67 mm; Change in Paw Thickness (mm) Mean ([2]; day 6 of dosing): 0.56 mm; Change in Paw Thickness (mm) Mean ([2]; day 7 of dosing): 0.45 mm; Change in Paw Thickness (mm) Mean ([2]; day 8 of dosing): 0.28 mm; Percent level of Biomarker Tissue [c] Compared to Untreated Control, MMP-9 AVG (MMP-9): 52%; Percent level of Biomarker Tissue [c] Compared to Untreated Control, MCP-1 AVG (MCP-1): 37%; Footpad tissue levels of cytokines (IL-1, IL-6, RANKL and MCP-1) and MMP-9 after therapeutic treatment [3]: decreased; Percent level of Biomarker Tissue [c] Compared to Untreated Control, IL-1 AVG (IL-1): 16%
CN(C)[C@@H]1C(O)=C(C(N)=O)C(=O)[C@@]2(O)C(O)=C3C(=O)c4c(O)ccc(-c5ccc(O)cc5)c4C[C@H]3C[C@@H]12 [N]	0.5 µg/mL (≈ 0.987 µM)	0.06 µg/mL (≈ 0.118 µM)	21%	–
CN(C)c1cc(-c2ncco2)c(O)c2c1C[C@H]1C[C@H]3[C@H](N(C)C)C(O)=C(C(N)=O)C(=O)[C@@]3(O)C(O)=C1C2=O [O]	> 64 µg/mL	32 µg/mL (≈ 61 µM)	26%	–
CN(C)c1cc(-c2ccsc2)c(O)c2c1C[C@H]1C[C@H]3[C@H](N(C)C)C(O)=C(C(N)=O)C(=O)[C@@]3(O)C(O)=C1C2=O [P]	> 64 µg/mL	0.5 µg/mL (≈ 0.927 µM)	34%	–
CN(C)[C@@H]1C(O)=C(C(N)=O)C(=O)[C@@]2(O)C(O)=C3C(=O)c4ccccc4C[C@H]3C[C@@H]12 [Q]	32 µg/mL (≈ 80.3 µM)	0.5 µg/mL (≈ 1.25 µM)	28%	–
CN(C)c1ccc(-c2cc(N(C)C)c3c(c2O)C(=O)C2=C(O)[C@]4(O)C(=O)C(C(N)=O)=C(O)[C@@H](N(C)C)[C@@H]4C[C@@H]2C3)cc1 [R]	> 64 µg/mL	2 µg/mL (≈ 3.47 µM)	32%	–
CN(C)c1cc(-c2ccc(C(N)=O)cc2)c(O)c2c1C[C@H]1C[C@H]3[C@H](N(C)C)C(O)=C(C(N)=O)C(=O)[C@@]3(O)C(O)=C1C2=O [S]	> 64 µg/mL	> 64 µg/mL	46%	–
CN(C)c1cc(C(=O)O)c(O)c2c1C[C@H]1C[C@H]3CC(O)=C(C(N)=O)C(=O)[C@@]3(O)C(O)=C1C2=O [U]	> 64 µg/mL	> 64 µg/mL	50%	–
CCCNC(=O)c1cc(N(C)C)c2c(c1O)C(=O)C1=C(O)[C@]3(O)C(=O)C(C(N)=O)=C(O)C[C@@H]3C[C@@H]1C2 [V]	> 64 µg/mL	2 µg/mL (≈ 4 µM)	43%	–
CN(C)c1cc(-c2ncco2)c(O)c2c1C[C@H]1C[C@H]3CC(O)=C(C(N)=O)C(=O)[C@@]3(O)C(O)=C1C2=O [X]	> 64 µg/mL	2 µg/mL (≈ 4.15 µM)	40%	–
CN(C)c1cc(C(=O)N2CCCCC2)c(O)c2c1C[C@H]1C[C@H]3CC(O)=C(C(N)=O)C(=O)[C@@]3(O)C(O)=C1C2=O [Y]	> 64 µg/mL	> 64 µg/mL	22%	–
CCO/N=C(\C)c1cc(N(C)C)c2c(c1O)C(=O)C1=C(O)[C@]3(O)C(=O)C(C(N)=O)=C(O)[C@@H](N(C)C)[C@@H]3C[C@@H]1C2 [Z]	> 64 µg/mL	4 µg/mL (≈ 7.37 µM)	32%	–
